# Where “and” joins values, the source holds several entries; their conditions need not be identical. Identical values can stand only once. Like-named read-outs stand apart in the source and are kept apart here.
# What was measured:
# [1] = test system: maximal electroshock (MES) model; assay: maximal electroshock (MES) model; format: in vivo, mouse; settings: for responders at 30 mg/kg / responders at 100 mg/kg / responders at 300 mg/kg: Mus musculus, MES; for responders at 30 mg/kg: 30 mg/kg ip; for responders at 30 mg/kg / responders at 300 mg/kg: read-out: number of animals protected/number of animals tested; for responders at 100 mg/kg: 100 mg/kg ip, read-out: number of animals protected/number of animals tested (converted); for responders at 300 mg/kg: 300 mg/kg ip
# Text: (§1) All compounds (FIG. 1) were screened in three whole mouse models: the maximal electroshock model (MES), the scMET test (pentylenetetrazole, Metrazol), and the 6 Hz psychomotor seizure model of partial epilepsy (32 mA). Adult male CF No 1 albino mice (26-30 g) were used for the 6 Hz test and 18-25 g mice were used in the MES and scMet tests. The animals are housed, fed, and handled in a manner consistent with the recommendations in the National Council Publication, “Guide for the Care and Use of Laboratory Animals”. The animal studies were performed by the NINDS Anticonvulsant Screening Program under IACUC number 09-12014. All compounds were administered ip in polyethylene glycol, 30%.
# (§2) The MES model, which generates generalized tonic-clonic seizures, involved pretreating mice with experimental compound, and administering 60 Hz of alternating current (50 mA) for 2 s via corneal electrodes. Prior to current administration, the animal's corneas were treated topically with 1% tetracaine. Animals are considered protected if the hindlimb tonic extensor component is absent. The scMET test was done by pretreating mice with experimental compound and administering 85 mg/kg Metrazol into the loose folds of the skin in the midline of the neck. Eighty-five mg/kg Metrazol is the dose that causes seizures in 97% (CD97) of control animals.
# [2] = test system: scMET model (pentylenetetrazole, Metrazol); assay: scMET test (subcutaneous Metrazol); format: in vivo, mouse; settings: Mus musculus, scMET, read-out: number of animals protected/number of animals tested; for responders at 30 mg/kg: 30 mg/kg ip; for responders at 100 mg/kg: 100 mg/kg ip; for responders at 300 mg/kg: 300 mg/kg ip
# Text: as §1, §2
# 6 Hz (32 mA) model = assay: 6 Hz (32 mA) psychomotor seizure model of partial epilepsy; format: in vivo, mouse; settings: for Protective effects, number of animals protected/number of animals tested: 6 Hz (32 mA), 100 mg/kg ip
# Text: as §1
# (§3) The 6 Hz test (also known as the minimal clonic seizure, or psychomotor test) involved delivering a corneal stimulus of 32 mA for 3 s. This current elicits psychomotor seizures in 97% of untreated animals. Seizures consist of a minimal clonic phase followed by stereotyped automatistic behaviors. Animals not showing such behaviors were considered protected. Toxicity was determined by the rotorod test. For this test, the animal is placed on a rotorod at 6 rpm following dosing. The animal is considered toxic if it falls off the rotorod three times in a 1 min period. The ED50, TD50 and confidence intervals were determined by probit analysis.
# rotorod test = assay: Toxicity by the rotorod test; format: in vivo
# Text: All compounds (FIG. 1) were screened in three whole mouse models: the maximal electroshock model (MES), the scMET test (pentylenetetrazole, Metrazol), and the 6 Hz psychomotor seizure model of partial epilepsy (32 mA). Adult male CF No 1 albino mice (26-30 g) were used for the 6 Hz test and 18-25 g mice were used in the MES and scMet tests. The animals are housed, fed, and handled in a manner consistent with the recommendations in the National Council Publication, “Guide for the Care and Use of Laboratory Animals”. […] All compounds were administered ip in polyethylene glycol, 30%.
# as §3, with “This current elicits psychomotor seizures in 97% of untreated animals.” left out
SMILES,responders at 30 mg/kg ([1]; 0.5 h) [%],responders at 100 mg/kg ([1]; 0.5 h) [%],responders at 100 mg/kg ([1]; 4 h) [%],responders at 300 mg/kg ([1]; 0.5 h) [%],responders at 300 mg/kg ([1]; 4 h) [%],responders at 30 mg/kg ([2]; 0.5 h) [%],responders at 30 mg/kg ([2]; 4 h) [%],responders at 100 mg/kg ([2]; 0.5 h) [%],responders at 100 mg/kg ([2]; 4 h) [%],responders at 300 mg/kg ([2]; 0.5 h) [%],responders at 300 mg/kg ([2]; 4 h) [%],"Protective effects, number of animals protected/number of animals tested (6 Hz (32 mA) model; 2 h)","Protective effects, number of animals protected/number of animals tested (6 Hz (32 mA) model; 4 h)","Toxicity, animals/number of animals tested (rotorod test; dose 100 mg/kg ip, 0.25 h)","Toxicity, animals/number of animals tested (rotorod test; dose 100 mg/kg ip, 0.5 h)","Toxicity, animals/number of animals tested (rotorod test; dose 100 mg/kg ip, 1 h)","Toxicity, animals/number of animals tested (rotorod test; dose 100 mg/kg ip, 2 h)","Toxicity, animals/number of animals tested (rotorod test; dose 100 mg/kg ip, 4 h)",other results
"Cc1cc(C(O)C(F)(F)F)ccc1O (stereo not shown) [RM170, 2-Methyl-4-(2,2,2-trifluoro-1-hydroxy-ethyl)-phenol]",0,0,0,100,100,0,0,0,0,0,0,1/4,1/4,0/3,0/8,0/3,0/3,0/4,"MES protection ([1]; 300 mg/kg dose): some protection; MES protection, time points after dosing ([1]; 300 mg/kg dose): protection at both 0.5 and 4 h; responders at 100 mg/kg ([1]; 0.25 h): 0%; responders at 100 mg/kg ([1]; 1 h): 0%; responders at 100 mg/kg ([1]; 2 h): 0%; responders at 100 mg/kg ([1]; 6 h): 0%; Protective effects, number of animals protected/number of animals tested (6 Hz (32 mA) model; 0.25 h): 0/4; Protective effects, number of animals protected/number of animals tested (6 Hz (32 mA) model; 0.5 h): 0/4; Protective effects, number of animals protected/number of animals tested (6 Hz (32 mA) model; 1 h): 2/4; animals in which seizures were inhibited (6 Hz (32 mA) model; 6 Hz, 100 mg/kg, any time point from 0.25 to 4 h): no more than 2 of 4; Toxicity, animals/number of animals tested (rotorod test; dose 100 mg/kg ip, 6 h): 0/3; Toxicity, animals/number of animals tested (rotorod test; dose 30 ip, 0.5 h): 0/4; Toxicity, animals/number of animals tested (rotorod test; dose 30 ip, 4 h): 0/2; Toxicity, animals/number of animals tested (rotorod test; dose 300 ip, 0.5 h): 0/4; Toxicity, animals/number of animals tested (rotorod test; dose 300 ip, 4 h): 0/2; evidence of toxicity (rotorod test; doses up to 300 mg/kg): Neither RM170 nor RM166 showed any evidence of toxicity"
"CCCc1cc(C(O)C(F)(F)F)cc(Br)c1O (stereo not shown) [RM1204, 2-Bromo-6-n-propyl-4-(2,2,2-trifluoro-1-hydroxy-ethyl)-phenol]",0,0,0,0,0,0,0,0,0,0,0,0/4,0/4,1/4,0/4,1/4,0/4,0/4,"responders at 30 mg/kg ([1]; 4 h): 0%; MES protection ([1]; any dose (30-300 mg/kg ip)): no MES protection; Protective effects, number of animals protected/number of animals tested (6 Hz (32 mA) model; 0.25 h, 100 mg/kg): 4/4 and complete protection; Protective effects, number of animals protected/number of animals tested (6 Hz (32 mA) model; 0.5 h, 100 mg/kg): 4/4 and complete protection; Protective effects, number of animals protected/number of animals tested (6 Hz (32 mA) model; 1 h, 100 mg/kg): partial protection and 2/4; toxicity (rotorod test; mouse, in vivo): only low toxicity"
